# Experimental data reported in patent publication US12599572B2, “Solid lipid nanoparticles of curcumin” (priority 2018, dated 2026).
# Like-named read-outs stand apart in the source and are kept apart here.
# Legend:
# [1] = Degradation studies (hydrolytic stability at pH 1.2, 6.8, 7.4 and 9); format: physicochemical; conditions: for k value: zero order
# Experimental: It was further diluted to 5 μg/ml with respective buffers (pH 1.2, pH 6.8, pH 7.4 and pH 9). In case of C-SLNaq, Iml dispersion was placed in a dialysis bag and dialyzed against methanol (100 ml) at room temperature for 45 minutes to remove unentrapped drug. […] The stock solution and sample solution were prepared in amber coloured volumetric flasks to avoid photodegradation. The solutions were prepared and incubated at 37° C. […] […] Presence of water quenches the fluorescent intensity of curcumin. The samples were thus analysed subsequently using the UV/Visible spectrophotometer at λmax425 nm. The absorbance read at zero time was considered as 100% and change in concentration and % degradation was determined accordingly.
# The graph between concentration versus time, log concentration versus time and percent drug remaining versus time were plotted.
# [2] = In-vitro release (Franz-diffusion cells, dialysis membrane); format: physicochemical
# Experimental: Jacketed franz-diffusion cells were used for the determination of in-vitro release of free curcumin and curcumin from C-SLNaq. These cells consist of the donor and the receptor chamber between which dialysis membrane is positioned. The dialysis membrane was soaked in double distilled water for 12 h prior to use. The whole system was water jacketed and thermostatically controlled by an external circulating water bath at 37° C.±1° C. The used receptor media consisted of 50% ethanol in distilled water. […] The receptor media was stirred throughout the experiment, using a magnetic stirrer. Iml aliquots were withdrawn regularly from the receptor compartment at various times starting at 30 min and replaced by an equal volume of fresh receptor medium. The samples were analysed, immediately, spectrophotometrically at 425 nm.
# [3] = Solubility of curcumin; format: physicochemical
# [4] = Photostability study (ICH); format: physicochemical
# Experimental: The above samples were placed in photostability chamber and exposed to light providing illumination of not less than 1.2 million lux hours for 10 days. After 10 days the containers were withdrawn and […] evaluated for total drug content, entrapment efficiency, particle size, zeta-potential and PDI. Samples of free drug, […] and C-SLNbent were analysed for total drug content.
# [5] = Pharmacokinetic studies, single oral dose; format: in vivo, Wistar Rats; conditions: rats, 100 mg/kg single oral dose
# Experimental: For in vivo pharmacokinetic studies, female Wistar Rats were used. The animals were divided into 3 groups (n=3). […] The blood samples (0.5 ml) were withdrawn from retro-orbital plexus at different time intervals and collected into microcentrifuge tubes containing EDTA. Plasma was separated by centrifuging the blood samples at 10000 rpm for 6 min at 5° C. After centrifugation, the plasma obtained was stored at −20° C. until analysis. […] To 50 μl of plasma samples in an eppendorf tube, 150 μl of methanol and 300 μl of acetonitrile:water (1:1) was added. The sample was vortexed for 5 min and centrifuged at 15,000 rpm to separate precipitated proteins. Supernatant was transferred to suitably labelled tubes. The sample was filtered through 0.2 μm syringe filter and was used for analysis using the developed Ultra high pressure liquid chromatography (UPLC) method. The pharmacokinetic parameters were calculated using non-compartmental model. The area under the concentration-time curve from time zero to time t (AUCo-t) was calculated using the trapezoidal method. Peak concentration (Cmax) and the time at which the peak concentration is achieved (Tmax), were obtained directly from the individual concentration-time profiles. All values were corrected for the spiked concentration. The area under the concentration-time curve from time zero to infinity was calculated by: AUCo-x=AUCo-+Ct/Ke, where Ct is the drug concentration observed at the last time and Ke is the apparent elimination rate constant obtained from the terminal slope of the individual concentration-time curves after logarithmic transformation of the concentration values and application of linear regression. AUMC was determined by plotting concentration*time (ct) versus time (t) using trapezoidal method. Mean residence time (MRT) was calculated by: MRT=AUMC/AUC.
# [6] = combined with piperine, rats (Shoba et al., 1998); cited from earlier work
compound,measurement,setting,value
"COc1cc(C=CC(=O)CC(=O)C=Cc2ccc(O)c(OC)c2)ccc1O [Free curcumin, 1,7-bis(4-hydroxy-3-methoxyphenyl)-1,6-hepadiene-3,5-dione]",half-life at 5 μg/ml,"[1]; alkaline borate buffer pH 9, pH 9",0.669 h
same,half-life at 5 μg/ml,"[1]; buffer pH 1.2, pH 1.2",17.3 h
same,order of degradation kinetics,[1]; investigated pH conditions (C-SLN: except pH 9),zero order
same,Percentage remaining,"[1]; pH 1.2, 0 h",100.00 ± 0.06%
same,Percentage remaining,"[1]; pH 1.2, 0.08 h",89.23 ± 0.02%
same,Percentage remaining,"[1]; pH 1.2, 0.25 h",88.29 ± 0.01%
same,Percentage remaining,"[1]; pH 1.2, 0.5 h",85.60 ± 0.01%
same,Percentage remaining,"[1]; pH 1.2, 1 h",87.24 ± 0.001%
same,Percentage remaining,"[1]; pH 1.2, 2 h",72.37 ± 0.02%
same,Percentage remaining,"[1]; pH 1.2, 3 h",68.74 ± 0.03%
same,Percentage remaining,"[1]; pH 1.2, 4 h",62.76 ± 0.01%
same,Percentage remaining,"[1]; pH 1.2, 5 h",61.01 ± 0.01%
same,Percentage remaining,"[1]; pH 1.2, 6 h",53.40 ± 0.02%
same,Percentage remaining,"[1]; pH 1.2, 24 h",15.76 ± 0.01%
same,degradation,"[1]; pH 1.2, 24 h",≤ 85%
same,degradation,"[1]; pH 1.2, upto 6 h",≤ 50%
same,degradation,"[1]; pH 1.2 medium, 4h",~40%
same,Percentage remaining,"[1]; pH 6.8, 0 h",100.00 ± 0.04%
same,Percentage remaining,"[1]; pH 6.8, 0.08 h",94.93 ± 0.06%
same,Percentage remaining,"[1]; pH 6.8, 0.25 h",87.63 ± 0.04%
same,Percentage remaining,"[1]; pH 6.8, 0.5 h",81.95 ± 0.08%
same,Percentage remaining,"[1]; pH 6.8, 1 h",79.72 ± 0.06%
same,Percentage remaining,"[1]; pH 6.8, 2 h",66.73 ± 0.05%
same,Percentage remaining,"[1]; pH 6.8, 3 h",62.68 ± 0.07%
same,Percentage remaining,"[1]; pH 6.8, 4 h",57.81 ± 0.05%
same,Percentage remaining,"[1]; pH 6.8, 5 h",43.61 ± 0.08%
same,Percentage remaining,"[1]; pH 6.8, 6 h",23.12 ± 0.04%
same,degradation,"[1]; pH 6.8, 6 h",77%
same,Percentage remaining,"[1]; pH 6.8, 24 h",11.36 ± 0.04%
same,degradation,"[1]; pH 6.8, 24 h",89%
same,Percentage remaining,"[1]; pH 7.4, 0 h",100.0 ± 0.060%
same,Percentage remaining,"[1]; pH 7.4, 0.08 h",96.33 ± 0.02%
same,Percentage remaining,"[1]; pH 7.4, 0.25 h",93.81 ± 0.04%
same,Percentage remaining,"[1]; pH 7.4, 0.5 h",84.17 ± 0.04%
same,Percentage remaining,"[1]; pH 7.4, 1 h",75.92 ± 0.04%
same,Percentage remaining,"[1]; pH 7.4, 2 h",67.20 ± 0.03%
same,Percentage remaining,"[1]; pH 7.4, 3 h",61.01 ± 0.03%
same,Percentage remaining,"[1]; pH 7.4, 4 h",49.08 ± 0.04%
same,Percentage remaining,"[1]; pH 7.4, 5 h",40.60 ± 0.03%
same,Percentage remaining,"[1]; pH 7.4, 6 h",24.31 ± 0.01%
same,degradation,"[1]; pH 7.4, 6 h",75%
same,Percentage remaining,"[1]; pH 7.4, 24 h",13.99 ± 0.01%
same,degradation,"[1]; pH 7.4, 24 h",77%
same,Percentage remaining,"[1]; pH 9, 0 h",100.00 ± 0.004%
same,Percentage remaining,"[1]; pH 9, 0.08 h",82.59 ± 0.009%
same,Percentage remaining,"[1]; pH 9, 0.25 h",61.43 ± 0.004%
same,Percentage remaining,"[1]; pH 9, 0.5 h",32.76 ± 0.006%
same,Percentage remaining,"[1]; pH 9, 1 h",20.48 ± 0.001%
same,Percentage remaining,"[1]; pH 9, 2 h",15.70 ± 0.002%
same,Percentage remaining,"[1]; pH 9, 3 h",9.90 ± 0.003%
same,Percentage remaining,"[1]; pH 9, 4 h",2.39 ± 0.004%
same,degradation,"[1]; pH 9, 4 h",approximately 98%
same,half-life at 5 μg/ml,"[1]; phosphate buffer pH 6.8, pH 6.8",1.32 h
same,half-life at 5 μg/ml,"[1]; phosphate buffer pH 7.4, pH 7.4",9.4 h
same,k value,[1]; pH 1.2,0.039
same,k value,[1]; pH 6.8,0.52
same,k value,[1]; pH 7.4,0.073
same,k value,[1]; pH 9,0.95
same,order of release,[2],first order
same,release model followed,[2],Hixon model
same,time over which drug was released,"[2]; receptor 50% ethanol, 37° C.",≤ 8 h
same,solubility,"[3]; 50% (v/v) ethanol, aqueous with cosolvent or surfactant or cyclodextrin",693 µg/mL
same,solubility,"[3]; water, read-out: aqueous solubility",0.6 µg/mL
same,solubility,"[3]; water, room temperature, read-out: Solubility in water",0.003 ± 0.002 µg/mL
same,TDC %,"[4]; Amber glass, 0 day",100.00 ± 0%
same,TDC %,"[4]; Amber glass, 10 days",78.31 ± 7.1%
same,TDC %,"[4]; Transparent, 0 day",100.00 ± 0%
same,TDC %,"[4]; Transparent, 10 days",65.51 ± 7.5%
same,degradation,"[4]; amber coloured containers, 10 days",21.7%
same,degradation,"[4]; transparent containers, 10 days",35%
same,AUC(0-inf),"[5]; female, Wistar, rat, plasma",2.69 ng·h/mL
same,Cmax,"[5]; female, Wistar, rat, plasma",1.79 ng/mL
same,MRT,"[5]; female, Wistar, rat, plasma",2 h
same,Tmax,"[5]; female, Wistar, rat, plasma",2 h
same,AUMC0-∞,[5],5.38 h^2*ng/ml
same,increase in the oral bioavailability,[6],154%
